Data set [1] in a line: in vitro. The conditions noted are these: human, Caco-2. The method, then: The Caco-2 assay was performed according to the procedure described in the following cited article [Caco-2 Monolayers in Experimental and Theoretical Predictions of Drug Transport, Artursson P, Palm K, Luthman K., Adv. Drug Deliv. Rev., 2001, 46, 27-43].
Data set [2] addresses T1, SSTR-2 (Homo sapiens, UniProt P30874).
T1 construct: expressed in transfected cells
The experiment in a line: Radioligand binding screen against somatostatin subtype SSTR-2. The conditions noted are these: Table 8; read-out: Ki SSTR2. The method, then: (§1) Receptor membrane preparations containing the desired cloned receptor (for example cloned human somatostatin receptor subtype 5, SSTR5) and radio-labeled ligand (for example 3-[^125I]iodotyrosyl^11 Somatostatin-14)) were diluted at the concentration required for testing and according to the specific parameters associated with the selected receptor-ligand combination, including receptor Bmax, ligand Kd and any other parameters necessary to optimize the experimental conditions. When tested for competition activity to the reference ligand, “compound 1” was mixed with membrane suspension and the radiolabeled reference ligand (with or without an excess of cold ligand to the receptor for determination of non-specific binding) and incubated at the temperature required by internal standard operating procedures. Following incubation, the binding reaction was stopped by the addition of ice-cold washing buffer and filtered on appropriate filters, which are then counted. Data analysis and curve-fitting was performed with XLfit (IDBS).
(§2) 10 mM solutions of test compounds in 100% DMSO were prepared. ˜160 μl was used for each dilution (20 μl/well in triplicate).
(§3) A 1.25 mM assay stock was prepared by making a 1:8 dilution of the 10 mM solution. (To 30 μL of the 10 mM solution was added 210 μL milli-Q H2O. A 1:5 dilution series in milli-Q H2O was then prepared.
(§4) In primary screening experiments compounds were tested in duplicate for a particular concentration.

Data set [3] has as its system Human Umbilical Vein Endothelial Cells (HUVEC). Put plainly: Endothelial cell proliferation assay (MTS). The note with it: 48 hrs. The class given is cell-based. As to the method:
Human Umbilical Vein Endothelial Cells (HUVEC from Clonetics) were plated in 96 well plates at 1000 cell per well in EGM-2 medium (Clonetics). Cells were grown overnight at 37° C. in 5% CO2. Fresh EGM-2 medium containing compound at the desired concentration was added to the wells and the cells allowed to grow for a further 48 hrs. A MTS (Promega) colorimetric assay was performed after 48 hrs to determine cell growth according to the manufacturers instructions. Results are presented in terms of percentage growth.

The test system of data set [4] is HUVEC tube formation. Put plainly: Matrigel tube formation assay. Type of data set: cell-based, human. The conditions noted are these: Homo sapiens, 22 h. The method, then:
HUVEC (Clonetics) were plated in 96 well plates in EGM-2 media (Clonetics) at 2.5 to 3×10^4 cells per well. Cells of less than 6 passages were used in all studies. Wells were precoated with 50 μL growth factor containing Matrigel (Becton Dickinson). HUVEC were allowed to form tubes by incubation at 37° C. in 5% CO2 for 22 hrs. In test wells compound was added in the desired concentration. Photographic images of the wells ×4 magnification were used to determine size of the tubes, length of tubes and number of junctions using image analysis software.

Data set [5] concerns the target T2, SSTR-1 (Homo sapiens, UniProt P30872).
T2 construct: expressed in transfected cells
The experiment in a line: Radioligand binding screen against somatostatin subtype SSTR-1. The note with it: Table 8; read-out: Ki SSTR1. The method, then: as §1, §2, §3, §4

Data set [6] has as its target T3, SSTR-4 (Homo sapiens, UniProt P31391).
T3 construct: expressed in transfected cells
Put plainly: Radioligand binding screen against somatostatin subtype SSTR-4 (SST4 assay). The conditions noted are these: Table 8; read-out: Ki SSTR4. As to the method: as §1, §2, §3
Assays were performed in triplicate at each concentration within the 1:5 dilution series: 250 μM, 50 μM, 10 μM, […], 0.4 μM, 0.08 μM, 0.016 μM, 0.0032 μM, etc. (for SST4 assay) and 125 μM, 10 μM, 2 μM, 1 μM, 0.5 μM, etc (for SST5 assay).
as §4

The target in data set [7] is T4, SSTR-3 (Homo sapiens, UniProt P32745).
T4 construct: expressed in transfected cells
Put plainly: Radioligand binding screen against somatostatin subtype SSTR-3. The conditions noted are these: Table 8; shown where Ki could not be determined (NoModel); read-out: IC50 SSTR3 (in parentheses). As to the method:
as §1, §2, §3, §4

The target of data set [8] is T5, Human SST5 somatostatin receptor (SSTR5) (Homo sapiens, UniProt P35346).
T5 construct: expressed in transfected cells; host or cells: HEK-293 EBNA
Put plainly: Filter plate assay for SST5 receptor, displacement of [125I]SST-14. Type of data set: binding. The conditions noted are these: Table 8; shown where Ki could not be determined (NoModel); read-out: IC50 SSTR5 (in parentheses). The gist of the method: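 HEK-293 EBNA membranes expressing human SST5 (5.5 μg) incubated 60 min at 25 °C with 4 nM [125I]SST-14 and compound in pH 7.5 Tris/EGTA/MgCl2/sucrose buffer. Bound radioactivity collected on PEI-coated glass fiber filters and counted; triplicate 1:5 dilution series from 125 μM, non-specific binding with excess cold ligand.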

Data set [9] deals with MV522 human NSCLC tumour xenograft. Put plainly: Nude mouse model of human MV522 non-small cell lung cancer tumours. The class given is in vivo, nude mice. The conditions noted are these: group five: paclitaxel 16 mg/kg i.p. qdx5 alone. The method, then:
Initial Maximum Tolerated Dose (MTD) studies were done in male nude mice to determine the appropriate intravenous dosing regimen for the MV522 human NSCLC tumour model. A range of doses between 0 and 50 mg/Kg for 28 days (qdx28) were tested. Mice were randomized into groups with 5 animals per group including vehicle control. Animals were weighed twice weekly starting on day one and observed daily for adverse reactions or toxicity due to the agent. MTD studies determined the selection of 20 mg/kg and 35 mg/kg for intravenous dosing once per day for 28 days in the MV522 human NSCLC tumour xenograft model.
Male nude mice (nu/nu) between 5 and 6 weeks of age weighing approximately 20 g were implanted subcutaneously (s.c) by trocar with fragments of MV522 human tumour carcinomas harvested from s.c growing tumours in host mice. MV-522 is a metastatic human lung adenocarcinoma line. When tumours reached approximately 72 mg in size animals were pair matched into treatment and control groups with 10 mice in each group. Each mouse was tagged and followed individually throughout the experiment.
“Compound 1” was administered i.v. in a saline vehicle from day one. Vehicle control group animals were administered saline i.v. There were nine treatment groups including the vehicle control group. […]
At the end of the treatment period the mice were weighed and sacrificed. Each tumour was excised and weighed and a mean actual tumour weight (mg) per group was calculated along with the mean actual volume (mm^3). […] Mean tumour regression was determined using the formula [1−(mean actual tumour weightFINAL/mean tumour weightDAY 1)×100%].

Some results are limits rather than exact numbers.

T5 sequence (P35346 whole entry): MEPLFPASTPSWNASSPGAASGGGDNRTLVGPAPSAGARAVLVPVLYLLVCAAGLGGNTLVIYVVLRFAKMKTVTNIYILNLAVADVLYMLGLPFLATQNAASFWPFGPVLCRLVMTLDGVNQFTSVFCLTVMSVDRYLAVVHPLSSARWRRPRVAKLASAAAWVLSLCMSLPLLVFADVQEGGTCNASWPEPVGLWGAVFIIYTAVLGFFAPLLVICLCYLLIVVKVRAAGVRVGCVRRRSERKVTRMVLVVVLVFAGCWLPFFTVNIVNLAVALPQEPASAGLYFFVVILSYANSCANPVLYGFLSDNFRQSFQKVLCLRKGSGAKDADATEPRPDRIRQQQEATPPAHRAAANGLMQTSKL
T2 sequence (P30872 whole entry, species assumed): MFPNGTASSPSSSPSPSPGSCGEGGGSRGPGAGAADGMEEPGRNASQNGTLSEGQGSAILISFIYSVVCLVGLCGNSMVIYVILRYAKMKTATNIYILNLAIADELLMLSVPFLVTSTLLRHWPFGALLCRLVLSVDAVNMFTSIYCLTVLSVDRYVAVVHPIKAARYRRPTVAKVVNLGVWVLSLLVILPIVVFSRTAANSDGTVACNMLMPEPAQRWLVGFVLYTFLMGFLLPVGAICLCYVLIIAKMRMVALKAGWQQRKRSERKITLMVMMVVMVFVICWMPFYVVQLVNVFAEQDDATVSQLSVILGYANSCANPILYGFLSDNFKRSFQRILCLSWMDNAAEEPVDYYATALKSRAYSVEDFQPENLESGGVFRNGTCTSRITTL
T4 sequence (P32745 whole entry): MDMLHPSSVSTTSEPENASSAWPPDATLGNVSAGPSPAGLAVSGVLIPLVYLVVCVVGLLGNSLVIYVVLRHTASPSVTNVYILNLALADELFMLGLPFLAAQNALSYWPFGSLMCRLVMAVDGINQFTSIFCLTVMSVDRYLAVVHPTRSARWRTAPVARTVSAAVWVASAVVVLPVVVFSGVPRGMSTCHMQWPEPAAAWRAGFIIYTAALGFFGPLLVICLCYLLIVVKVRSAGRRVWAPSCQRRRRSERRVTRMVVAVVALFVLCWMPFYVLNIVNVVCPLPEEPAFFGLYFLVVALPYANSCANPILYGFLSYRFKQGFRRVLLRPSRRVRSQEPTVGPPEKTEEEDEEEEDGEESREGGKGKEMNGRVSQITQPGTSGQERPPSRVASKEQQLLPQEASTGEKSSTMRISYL
T3 sequence (P31391 whole entry): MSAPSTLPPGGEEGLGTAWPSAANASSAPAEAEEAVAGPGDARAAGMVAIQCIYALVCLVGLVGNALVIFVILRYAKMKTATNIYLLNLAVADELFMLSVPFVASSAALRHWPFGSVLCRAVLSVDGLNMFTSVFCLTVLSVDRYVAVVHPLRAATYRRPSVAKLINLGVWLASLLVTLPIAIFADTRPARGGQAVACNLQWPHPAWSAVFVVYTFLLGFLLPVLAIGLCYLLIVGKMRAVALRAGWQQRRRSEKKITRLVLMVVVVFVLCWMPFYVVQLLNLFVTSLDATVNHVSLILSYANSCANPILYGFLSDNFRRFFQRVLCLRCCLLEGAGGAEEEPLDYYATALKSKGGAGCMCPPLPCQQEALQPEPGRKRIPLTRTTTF
T1 sequence (P30874 whole entry): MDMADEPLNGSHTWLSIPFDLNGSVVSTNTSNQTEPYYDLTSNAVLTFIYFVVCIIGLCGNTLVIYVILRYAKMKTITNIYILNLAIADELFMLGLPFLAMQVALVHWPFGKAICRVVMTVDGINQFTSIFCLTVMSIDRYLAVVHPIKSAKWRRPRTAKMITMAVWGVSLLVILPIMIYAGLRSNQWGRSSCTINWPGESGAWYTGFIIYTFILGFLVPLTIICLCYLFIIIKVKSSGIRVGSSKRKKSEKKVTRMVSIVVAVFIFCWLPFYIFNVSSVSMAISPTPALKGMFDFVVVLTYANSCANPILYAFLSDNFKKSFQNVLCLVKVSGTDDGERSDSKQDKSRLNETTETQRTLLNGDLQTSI

Take `OC[C@@H](O)[C@@H](O)[C@H](O)[C@H](O)CO` [mannitol, reference compound]: the Papp – broadly, the rate of passage across a membrane or cell layer, normalised by area and donor concentration – in data set [1] worked out at 0.813 ×10⁻⁶ cm/s.
Take `CS[C@@H]1O[C@H](COCc2ccc(Cl)cc2)[C@@H](O)[C@@H](OCc2ccc3ccccc3c2)[C@H]1NC(=O)CCN` [Compound 9]: the values for the inhibition constant (Ki) in data set [2], in data set [5] and in data set [6] were 490 nM, above 10 µM and 463 nM, respectively. Besides, in data set [3] (125 uM), the Percent cell growth at 125 µM was -86%. The Percent cell growth at 250 µM in data set [3] (250 uM) was -78%. The EC50 (in general, the midpoint of the concentration-response curve) in data set [4] amounted to 50 µM. For the same compound, the IC50 (in general, the midpoint of a concentration-inhibition curve) in [7] is 0.8 nM; in [8], 1.1 nM.
Turning to `CC(=O)O[C@H]1C(=O)[C@@]2(C)[C@H]([C@H](OC(=O)c3ccccc3)[C@]3(O)C[C@H](OC(=O)[C@H](O)[C@@H](NC(=O)c4ccccc4)c4ccccc4)C(C)=C1C3(C)C)[C@]1(OC(C)=O)CO[C@@H]1C[C@@H]2O` [paclitaxel, reference compound], in data set [9], the “Tumour growth inhibition (TGI)” value is 42.1%.

The values are drawn from patent US20080280837A1, “Biologically Active Compounds with Anti-Angiogenic Properties” (priority 2004, published 2008).
